In paper PMC8287944, “5-Fluorouracil blocks quorum-sensing of biofilm-embedded methicillin-resistant Staphylococcus aureus in mice” (Nucleic Acids Research, 2021):

What was measured:
[1] = test system: AI-2 production by HEK-293AI2 cells expressing MTAN and LuxS; set-up: method as in PMID 29739943; settings: earlier proof-of-concept study; cited from earlier work
MRSA ATCC 43300 [2] = test system: MRSA ATCC 43300; set-up: method as in PMID 21576433; settings: implant-associated MRSA infection model; cited from earlier work
MRSA ATCC 43300 [3] = test: Murine tissue cage (foreign-body) infection model, prophylaxis; format: in vivo, Staphylococcus aureus; settings: C57BL/6 mice; for Effect on biofilm / adherent MRSA / Effect on planktonic MRSA infection: prophylactic treatment; for Effect on biofilm / adherent MRSA: explanted cages 2 days post-infection; for Effect on planktonic MRSA infection: tissue cage fluid 2 days post-infection
Description: To evaluate the prophylactic efficacy of 5-FU against MRSA infection, we used our murine model of foreign-body infection, which closely mimics human implant-associated infections. This model of foreign-body infection ([26],[27]) was established with the approval of the Kantonale Veterinaeramt Basel-Stadt, Switzerland (permit no. 1710). Experiments were conducted according to the regulations of Swiss veterinary law and performed in the animal house of the Department of Biomedicine, University Hospital Basel, Switzerland. Healthy wild-type female C57BL/6 mice at 13 weeks of age (JanvierLabs, France) kept under specific pathogen-free conditions (biosafety level 2) were anesthetized, followed by the subcutaneous implantation of sterile cylindrical Teflon tissue cages (8.5 × 1 × 30 mm; volume: 1.9 ml) with 130 regularly spaced holes (Angst + Pfister AG, Zurich, Switzerland). They were housed in a 12 hr light/dark cycle (light from 7 am to 7 pm) in a temperature-controlled room (24°C) with free access to regular mice chow and water. Mice were randomly assigned to experimental groups, which were not involved in previous procedures. The mice were randomized into groups, which were treated as follows: saline (untreated growth control; n = 7), saline with 5.2844 mg/kg DPD (n = 4), 50 mg/kg daptomycin (DAP) (Novartis, Basel, Switzerland) (n = 11), 10 mg/kg 5-FU with and without 50 mg/kg DAP (each n = 8), 40 mg/kg 5-FU with or without 50 mg/kg DAP (n = 16 and n = 13, respectively), 40 mg/kg 5-FU with 1 μM DPD (n = 6), or 40 mg/kg 5-FU with 50 mg/kg DAP and 5.2844 mg/kg DPD (n = 8). DAP was given intraperitoneally immediately before implantation, and 5-FU and DPD was given immediately after implantation directly into the lumen of the cage. Afterwards, the cages were infected with 965 CFU of MRSA 43300. At 2 days post-infection, tissue cage fluid was collected, and the planktonic bacterial load was evaluated by plating on blood agar plates. In additional, mice were sacrificed and the tissue cages were explanted under aseptic conditions. The explanted tissue cages were washed twice with phosphate-buffered saline followed by 30 s vortexing, sonication for 3 min at 130 W and another 30 s vortexing to release adherent bacteria from the biofilm. Quantification of adherent bacteria was performed by plating appropriated dilutions on blood agar plates. To determine the prevention rate, the presence of any re-growth of MRSA was examined by further incubation of the cage in tryptic soy broth (TSB) for 48 h at 37°C. MRSA re-growth represents therapy failure, and the prevention rate was defined as the percentage of cages without growth in each treatment group.
Figure 6. Prophylactic effect of 5-FU against MRSA ATCC 43300 in a murine tissue cage infection model. Read-outs were obtained two days after infection with 965 CFU/cage and treatment with saline, saline with 1 μM AI-2, 50 mg/kg daptomycin (DAP), 10 mg/kg 5-FU with or without 50 mg/kg DAP, 40 mg/kg 5-FU with or without 50 mg/kg DAP or 40 mg/kg 5-FU with 50 mg/kg DAP and 5.2844 mg/kg DPD, as indicated below the panels. (A) Effect on planktonic MRSA 43300 two days post-infection. (B) Effect on adherent MRSA after explantation and sonication. (C) Prevention rate. Values in (A) and (B) are median ± IQR and those in (C) are % ([…]; **P < 0.001; ****P < 0.0001; ns, not significant). TEXT PRINTED IN THE PICTURE: (C) DAP: prevention rate (%): 18 | (C) DAP + 5-FU (10): prevention rate (%): 75 | (C) DAP + 5-FU (40): prevention rate (%): 94 | (C) DAP + 5-FU (40) + DPD: prevention rate (%): 12.5 DOUBTS OF THE COPYIST ABOUT THIS PICTURE: Panel C, DAP, prevention rate: 18 or 16 (small print) / Panel C, DAP + 5-FU (10), prevention rate: 75 or 76 (small print) / Panel C: which treatment belongs to each bar was read from the small +/- grid under the plot, so the column alignment is not fully certain

SE 1457 wild type = test: AI-2 activity of SE 1457 wild type; format: cell-based, Staphylococcus epidermidis; settings: 1 μM DPD with increasing 5-FU concentrations, 3 h
Description: (§1) To confirm that the phenotype could be restored, 1 μM synthetic (S)-4,5-dihydroxy-2,3-pentanedione (DPD) (Biosynth Carbosynth, Staad, Switzerland) was used. After 3 h under static conditions at 37°C, the supernatant was analysed for AI-2 activity with V. harveyi (MM32).
Supplementary Figure 4 | Bioactivity of 5-FU against Staphylococcus epidermidis (SE). a) Quorum-sensing-associated AI-2 activity of SE 1457 grown for 3 h in the presence of different 5-FU concentrations (note log scale). b) Reversing effect of 1 µM DPD on the AI-2-reducing action of 5-FU (dashed line indicates AI-2 baseline of SE 1457 without 5-FU). Values represent 3 biological replicates expressed as mean ± SD (*, p < 0.05; **, p < 0.01).

MRSA ATCC 43300 [4] = test: AI-2 activity of MRSA ATCC 43300; format: cell-based, Staphylococcus aureus; settings: 1 μM DPD
Description: as §1
Figure 4. Bioactivity of 5-FU against MRSA ATCC 43300. (A) Quorum sensing-associated AI-2 activity of MRSA 43300 grown for 3 h with different 5-FU concentrations. (B) Effect of different 5-FU concentrations on MRSA 43300 growth. (C) Interference with biofilm formation. (D) Effect on adherent MRSA 43300. Data points represent three biological replicates expressed as mean ± SD (**P < 0.01; ***P < 0.001; ****P < 0.0001).
Figure 5. Phenotype restoration with synthetic AI-2 supplementation. AI-2 activity of MRSA ATCC 43300 was evaluated with and without 1 μM DPD in the presence of different 5-FU concentrations. The dashed line indicates the baseline level of AI-2 of MRSA ATCC 43300 in the absence of 5-FU. Values represent 3 biological replicates expressed as mean ± SD (**P < 0.01; ****P < 0.0001).

Row | Structure (SMILES) | AI-2 production in HEK cells [1] | Clearance rate of daptomycin used alone (MRSA ATCC 43300 [2]) [%] | Effect on biofilm / adherent MRSA (MRSA ATCC 43300 [3]) | Effect on planktonic MRSA infection (MRSA ATCC 43300 [3]) | AI-2 activity of SE 1457 with DPD added to 5-FU (SE 1457 wild type) | Baseline AI-2 activity of MRSA 43300 (MRSA ATCC 43300 [4]) | AI-2 activity of 5-FU-challenged MRSA supplemented with DPD (MRSA ATCC 43300 [4]; MRSA ATCC 43300) | Effect of DPD on prevention rate (MRSA ATCC 43300 [3]; DPD co-administered with 5-FU and DAP)
1 | Nc1ncnc2c([C@@H]3N[C@H](CO)[C@@H](O)[C@H]3O)c[nH]c12 [immunicillin-A] | significantly decreased |  |  |  |  |  |  | 
2 | CCCCCCCCCC(=O)N[C@@H](Cc1c[nH]c2ccccc12)C(=O)N[C@H](CC(N)=O)C(=O)N[C@@H](CC(=O)O)C(=O)N[C@@H]1C(=O)NCC(=O)N[C@@H](CCCN)C(=O)N[C@@H](CC(=O)O)C(=O)N[C@H](C)C(=O)N[C@@H](CC(=O)O)C(=O)NCC(=O)N[C@H](CO)C(=O)N[C@@H]([C@H](C)CC(=O)O)C(=O)N[C@@H](CC(=O)c2ccccc2N)C(=O)O[C@@H]1C [DAP, daptomycin] |  | < 20 | neither 5-FU nor DAP alone was sufficient to contain the infection | failed to clear planktonic MRSA infections |  |  |  | 
3 | CC(=O)C(=O)[C@@H](O)CO [DPD, (S)-4,5-dihydroxy-2,3-pentanedione] |  |  | reversed the 5-FU-dependent inhibition | reversed the 5-FU-dependent inhibition | AI-2 activity returned almost to baseline | little influence | counteracted the effect of 5-FU | decreased the prevention rate to the level observed for DAP monotherapy
